Reference: PMC6163091 (Chemical biology & drug design, 2018)
Where two headings read alike, the source gives them in different places. One block for each molecule: values may come before it.

How the values were obtained:
[1] = target: guanosine/adenosine/cytidine nucleoside hydrolase (GACNH) (Trichomonas vaginalis, UniProt A2DN71); assay: 1H NMR-based activity assay of GACNH; assay type: biochemical; details: for inhibition at 250 µM: read-out: % inhibition at 250 μM against GACNH
[2] = target: T1, adenosine/guanosine nucleoside hydrolase (AGNH) (Trichomonas vaginalis, UniProt A2EYV3); assay: 1H NMR activity assay of AGNH; assay type: biochemical; details: for inhibition at 250 µM: read-out: % inhibition at 250 μM against AGNH
T1 sequence (A2EYV3 1-304): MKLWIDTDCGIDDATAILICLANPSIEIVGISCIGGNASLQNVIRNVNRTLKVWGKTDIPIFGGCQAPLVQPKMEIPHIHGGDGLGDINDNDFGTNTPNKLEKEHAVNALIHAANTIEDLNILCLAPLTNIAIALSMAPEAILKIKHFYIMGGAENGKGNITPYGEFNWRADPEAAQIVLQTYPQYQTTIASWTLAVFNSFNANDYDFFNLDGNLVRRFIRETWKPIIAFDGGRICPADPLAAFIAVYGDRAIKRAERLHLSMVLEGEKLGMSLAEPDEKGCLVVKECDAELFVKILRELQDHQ

[3] = system: uridine nucleoside hydrolase (UNH); assay: 19F NMR activity assay of UNH; assay type: biochemical, Trichomonas vaginalis; details: 250 μM compound; NM = not measurable (percent inhibition < 10%)
[4] = system: uridine nucleoside hydrolase (UNH); details: NMR screen of NIH Clinical Collection; cited from earlier work
[5] = IC50 (μM) with Triton, GACNH, in the presence of 0.01% Triton X-100
[6] = carboxamidine in place of carboxamide
[7] = IC50 against GACNH, ribavirin analogs, Table 2

SMILES: O=C1c2c(O)cc(O)cc2O[C@H](c2ccc(O)c(O)c2)[C@H]1O (racemic) [(±)-Taxifolin]
IC50 ([1]; read-out: IC50 (μM) with Triton, GACNH, in the presence of 0.01% Triton X-100): 41.6 ± 20.4 µM

inhibition at 250 µM [2]: < 10% | inhibition at 250 µM [1]: < 10%
SMILES: NC(=O)c1ncn([C@@H]2O[C@H](CO)[C@@H](O)[C@H]2O)c1O [Mizoribine]
% inhibition at 250 μM against UNH [3]: NM (Not measurable (percent inhibition < 10%))

SMILES: CCc1oc2ccccc2c1C(=O)c1cc(Br)c(O)c(Br)c1 [Benzbromarone]
IC50 [1, 5]: 134 ± 32.7 µM

SMILES: COc1ccnc(C[S+]([O-])c2nc3ccc(OC(F)F)cc3[nH]2)c1OC (centres unmarked) [pantoprazole]
inhibition of UNH (earlier screen) [4]: potent inhibitors

SMILES: COc1ccc(-c2oc3c(CC=C(C)C)c(O[C@@H]4O[C@H](CO)[C@@H](O)[C@H](O)[C@H]4O)cc(O)c3c(=O)c2O[C@@H]2O[C@@H](C)[C@H](O)[C@@H](O)[C@H]2O)cc1 [Icariin]
IC50 [1, 5]: 5 ± 1.7 µM

inhibition at 250 µM [2]: < 10% | inhibition at 250 µM [1]: 70% | % inhibition at 250 μM against UNH [3]: 51%
SMILES: NC(=O)c1ncn([C@@H]2O[C@H](CO)[C@@H](O)[C@H]2O)c1N [Acadesine]

SMILES: COc1ccc2[nH]c([S+]([O-])Cc3ncc(C)c(OC)c3C)nc2c1 (centres unmarked) [omeprazole]
inhibition of UNH (earlier screen) [4]: potent inhibitors

SMILES: COCCCOc1ccnc(C[S+]([O-])c2nc3ccccc3[nH]2)c1C (centres unmarked) [rabeprazole]
inhibition of UNH (earlier screen) [4]: potent inhibitors

IC50 [2]: 0.12 ± 0.03 µM | enhancement of potency against AGNH relative to ribavirin [2, 6]: more than 100 fold | selectivity toward AGNH over GACNH ([2]; from IC50 values): 10 fold | IC50 [1, 7]: 1.1 ± 0.6 µM | enhancement of potency against GACNH relative to ribavirin [1, 6]: about 10 fold | % inhibition at 250 μM against UNH [3]: 55%
SMILES: N=C(N)c1ncn([C@@H]2O[C@H](CO)[C@@H](O)[C@H]2O)n1 [Viramidine]

SMILES: OC[C@H]1O[C@@H](n2cnc3c(NC4CCCC4)nc(Cl)nc32)[C@H](O)[C@@H]1O [CCPA, 2-chloro-N(6)-cyclopentyladenosine]
IC50 [1, 5]: 14 ± 5.8 µM

IC50 [1, 5]: 22.6 ± 7.6 µM
SMILES: O=c1c(O[C@@H]2O[C@H](CO)[C@H](O)[C@H](O)[C@H]2O)c(-c2ccc(O)c(O)c2)oc2cc(O)cc(O)c12 [Hyperoside]

SMILES: NC(=O)c1ncn([C@@H]2O[C@H](CO)[C@@H](O)[C@H]2O)n1 [Ribavirin]
inhibition at 250 µM [2]: 83% | IC50 [1, 5]: 9 ± 3.3 µM | IC50 [1, 7]: 8.6 ± 4.4 µM | GACNH inhibition in screen ([1]; screen of NIH Clinical Collection, 50 μM compound, 100 μM adenosine, 40 min): significant inhibition | % inhibition at 250 μM against UNH [3]: 58%

IC50 [1, 5]: 2.2 ± 0.6 µM
SMILES: O=c1c(O[C@@H]2O[C@H](CO)[C@@H](O)[C@H](O)[C@H]2O)c(-c2ccc(O)c(O)c2)oc2cc(O)cc(O)c12 [Isoquercitrin]
